# Experimental data reported in article PMC10959927, “Platinum iodido drugs show potential anti-tumor activity, affecting cancer cell metabolism and inducing ROS and senescence in gastrointestinal cancer cells” (Communications Biology, 2024).
# Values joined by “and” are separate entries in the source; they are usually repeats but may differ in a detail not shown here. Identical values can stand only once.
# What was measured:
# Format in all cases: cell-based, human
# MKN45 cells [1] = assay: Immunofluorescence of γ-H2AX foci; settings: Fig. 3B; for foci/cell, number of cells in class: cell count
# Experimental: (§1) Cells (7 × 10^4) were seeded on 20 mm coverslips. […] Coverslips were incubated for 1 h with the primary antibody (Cell Signaling: H2AX Ser139 (#2595) and 53BP1 (#4937)) at room temperature, followed by a 1 h incubation with the appropriate secondary antibody. DNA was stained with DAPI. Fluorescence microscopy was performed using a NIKON Eclipse 90i. The image analysis was performed using the software program Nikon NIS-Elements and Image J.
# AGS cells [2] = assay: Lactate production assay; settings: replicates
# Experimental: (§2) Lactate production assay. […] Proteins were removed from 50 μL of the medium by adding 100 μL of 8% Percloric Acid and 40% EtOH at 4 °C, and centrifuging at 2 × 10^4 g for 10 min at 4 °C. The supernatants were then frozen until the lactate in 15 μL of each sample, or lactate standard, was measured mixed with 150 μl of assay buffer (0.5 M glycine [pH 9.5], 0.2 M Hydrazine, 3.4 mM EDTA), 100 μl of H20, 5 μL of 1100 U/mL LDH (Roche) and 30 μL of 15 mM NAD + . NADH production was evaluated by measuring absorbance at 340 nm in a multiplate reader (Synergy HT, Biotek) and it was proportional to the lactic acid concentration in the sample after a 2 h incubation. The lactate concentration was normalized to the total amount of protein measured with the Micro BCA Protein Assay Kit (Thermo Scientific). Assays were performed in triplicate in three independent experiments.
# PANC1 cells [3] = assay: Lactate production assay; settings: replicates
# Experimental: as §2
# MKN45 cells [4] = assay: Lactate production assay; settings: replicates
# Experimental: as §2
# AGS cells [5] = assay: Ratio GSH/GSSG, colorimetric kit
# Experimental: (§3) GSH and GSSG levels were determined in AGS and PANC1 cells after 3 and 24 h of treatment with the compounds (using H2O2 as a positive control) with the Glutathione Colorimetric Detection Kit (ThermoFisher) following the manufacturer’s instructions. Thirty minutes after adding the Colorimetric Detection Reagent and the Reaction Mixture, the absorbance was read at 405 nm. A standard curve was generated with each assay to interpolate the sample results. To measure GSSG, standards and samples must be diluted with the Sample Diluent containing 2-vinylpyridine.
# PANC1 cells [6] = assay: Ratio GSH/GSSG, colorimetric kit
# Experimental: as §3
# AGS cells [7] = assay: Clonogenic (CFU) assay with or without NAC; settings: 10 days
# Experimental: (§4) For the clonogenic assay we used two different approaches. […] Then, cells were cultured in a 6-well plate at a very low concentration (2 × 10^3 cells per well) and incubated for 10 days. […] To evaluate the role of ROS in cell proliferation, we supplemented the growth medium with 0.5 mM NAC. After 10 days, the cells were fixed with 1% glutaraldehyde and stained with 0.1% crystal violet. The number of colonies was quantified directly and reflected as CFUs: Colony Forming Units.
# MKN45 cells [8] = assay: Clonogenic (CFU) assay with or without NAC; settings: 10 days
# Experimental: as §4
# AGS cells [9] = assay: Immunofluorescence of γ-H2AX and 53BP1 foci; settings: for foci/cell, share of cells in class (Suma 100) / foci/cell, number of cells in class: Fig. 3B; for foci/cell, number of cells in class: cell count
# Experimental: as §1
# PANC1 cells [10] = assay: Immunofluorescence of γ-H2AX and 53BP1 foci; settings: for foci/cell, share of cells in class (Suma 100) / foci/cell, number of cells in class: PANC1, Fig. 3B; for foci/cell, number of cells in class: cell count
# Experimental: as §1
# PANC1 cells [11] = assay: Clonogenic (CFU) assay after 1, 3, 24 h pre-treatment
# Experimental: as §4
smiles,measurement,setting,value
"CC(C)[NH][Pt@SP3]([I])([I])[NH]C(C)C [I5, trans-[PtI2(isopropylamine)2]]","foci/cell, share of cells in class (Suma 100)",MKN45 cells [1]; class 16-30 foci/cell,20
same,"foci/cell, number of cells in class",MKN45 cells [1]; class 16-30 foci/cell,5
same,"foci/cell, share of cells in class (Suma 100)",MKN45 cells [1]; class 31-45 foci/cell,24
same,"foci/cell, number of cells in class",MKN45 cells [1]; class 31-45 foci/cell,6
same,"foci/cell, share of cells in class (Suma 100)",MKN45 cells [1]; class 46-60 foci/cell,20
same,"foci/cell, number of cells in class",MKN45 cells [1]; class 46-60 foci/cell,5
same,"foci/cell, share of cells in class (Suma 100)",MKN45 cells [1]; class <15 foci/cell,16
same,"foci/cell, number of cells in class",MKN45 cells [1]; class <15 foci/cell,4
same,"foci/cell, share of cells in class (Suma 100)",MKN45 cells [1]; class >61 foci/cell,20
same,"foci/cell, number of cells in class",MKN45 cells [1]; class >61 foci/cell,5
same,lactate assay,AGS cells [2],1.16 Lactate mM/mg prot and 3.26 Lactate mM/mg prot and 1.86 Lactate mM/mg prot and 0.01 Lactate mM/mg prot and 0.05431 Lactate mM/mg prot and 0.02716 Lactate mM/mg prot and 0.02 Lactate mM/mg prot and 0.03 Lactate mM/mg prot
same,lactate assay,PANC1 cells [3],5.32 Lactate mM/mg prot and 7.44 Lactate mM/mg prot and 7.29 Lactate mM/mg prot and 4.009 Lactate mM/mg prot and 7.435 Lactate mM/mg prot and 6.316 Lactate mM/mg prot and 4.98 Lactate mM/mg prot and 4.88 Lactate mM/mg prot and 4.97 Lactate mM/mg prot
same,lactate assay,MKN45 cells [4],3.26 Lactate mM/mg prot and 4 Lactate mM/mg prot and 1.31 Lactate mM/mg prot and 1.423 Lactate mM/mg prot and 0.8373 Lactate mM/mg prot and 1.863 Lactate mM/mg prot and 1.55 Lactate mM/mg prot and 1.53 Lactate mM/mg prot and 1.48 Lactate mM/mg prot
same,GSH/GSSG,"AGS cells [5]; AGS, 3, relative to Control = 1",0.9172 and 0.9228 and 0.9268
same,GSH/GSSG,"AGS cells [5]; AGS, 24, relative to Control = 1",0.5757 and 0.62 and 0.7864
same,GSH/GSSG,"PANC1 cells [6]; PANC1, 3, relative to Control = 1",0.746 and 0.7881 and 0.8512
same,GSH/GSSG,"PANC1 cells [6]; PANC1, 24, relative to Control = 1",0.8241 and 0.8337 and 0.9592
same,"colonies (CFUs), mean ± SD","AGS cells [7]; AGS + NAC 0.5 mM, IC25 concentration",106 ± 46
same,"colonies (CFUs), mean ± SD","AGS cells [7]; AGS + NAC 0.5 mM, IC50 concentration",2.3 ± 2.5
same,"colonies (CFUs), mean ± SD","AGS cells [7]; AGS, IC25 concentration, no NAC",0
same,"colonies (CFUs), mean ± SD","AGS cells [7]; AGS, IC50 concentration, no NAC",0
same,"colonies (CFUs), mean ± SD","MKN45 cells [8]; MKN45 + NAC 0.5 mM, IC25 concentration",99 ± 6
same,"colonies (CFUs), mean ± SD","MKN45 cells [8]; MKN45 + NAC 0.5 mM, IC50 concentration",52 ± 21
same,"colonies (CFUs), mean ± SD","MKN45 cells [8]; MKN45, IC25 concentration, no NAC",0
same,"colonies (CFUs), mean ± SD","MKN45 cells [8]; MKN45, IC50 concentration, no NAC",0
same,"foci/cell, share of cells in class (Suma 100)",AGS cells [9]; class 16-30 foci/cell,32.2835
same,"foci/cell, number of cells in class",AGS cells [9]; class 16-30 foci/cell,41
same,"foci/cell, share of cells in class (Suma 100)",AGS cells [9]; class 31-45 foci/cell,14.1732
same,"foci/cell, number of cells in class",AGS cells [9]; class 31-45 foci/cell,18
same,"foci/cell, share of cells in class (Suma 100)",AGS cells [9]; class 46-60 foci/cell,7.874
same,"foci/cell, number of cells in class",AGS cells [9]; class 46-60 foci/cell,10
same,"foci/cell, share of cells in class (Suma 100)",AGS cells [9]; class <15 foci/cell,37.0079
same,"foci/cell, number of cells in class",AGS cells [9]; class <15 foci/cell,47
same,"foci/cell, share of cells in class (Suma 100)",AGS cells [9]; class >61 foci/cell,8.661
same,"foci/cell, number of cells in class",AGS cells [9]; class >61 foci/cell,11
same,foci/cell: number of cells with 16-30 foci,"AGS cells [9]; Fig. S4B, cell counts",24
same,foci/cell: number of cells with 31-45 foci,"AGS cells [9]; Fig. S4B, cell counts",5
same,foci/cell: number of cells with 46-60 foci,"AGS cells [9]; Fig. S4B, cell counts",2
same,foci/cell: number of cells with <15 foci,"AGS cells [9]; Fig. S4B, cell counts",37
same,foci/cell: number of cells with >61 foci,"AGS cells [9]; Fig. S4B, cell counts",0
same,foci/cell: share of cells with 16-30 foci (Suma 100),"AGS cells [9]; Fig. S4B, share of N",35.2941
same,foci/cell: share of cells with 31-45 foci (Suma 100),"AGS cells [9]; Fig. S4B, share of N",7.353
same,foci/cell: share of cells with 46-60 foci (Suma 100),"AGS cells [9]; Fig. S4B, share of N",2.941
same,foci/cell: share of cells with <15 foci (Suma 100),"AGS cells [9]; Fig. S4B, share of N",54.4118
same,foci/cell: share of cells with >61 foci (Suma 100),"AGS cells [9]; Fig. S4B, share of N",0
same,foci/cell: number of cells with 16-30 foci,"PANC1 cells [10]; PANC1, Fig. S4B, cell counts",11
same,foci/cell: number of cells with 31-45 foci,"PANC1 cells [10]; PANC1, Fig. S4B, cell counts",3
same,foci/cell: number of cells with 46-60 foci,"PANC1 cells [10]; PANC1, Fig. S4B, cell counts",1
same,foci/cell: number of cells with <15 foci,"PANC1 cells [10]; PANC1, Fig. S4B, cell counts",18
same,foci/cell: number of cells with >61 foci,"PANC1 cells [10]; PANC1, Fig. S4B, cell counts",0
same,foci/cell: share of cells with 16-30 foci (Suma 100),"PANC1 cells [10]; PANC1, Fig. S4B, share of N",33.3333
same,foci/cell: share of cells with 31-45 foci (Suma 100),"PANC1 cells [10]; PANC1, Fig. S4B, share of N",9.091
same,foci/cell: share of cells with 46-60 foci (Suma 100),"PANC1 cells [10]; PANC1, Fig. S4B, share of N",3.0303
same,foci/cell: share of cells with <15 foci (Suma 100),"PANC1 cells [10]; PANC1, Fig. S4B, share of N",54.5455
same,foci/cell: share of cells with >61 foci (Suma 100),"PANC1 cells [10]; PANC1, Fig. S4B, share of N",0
same,"foci/cell, share of cells in class (Suma 100)",PANC1 cells [10]; class 16-30 foci/cell,26.9231
same,"foci/cell, number of cells in class",PANC1 cells [10]; class 16-30 foci/cell,7
same,"foci/cell, share of cells in class (Suma 100)",PANC1 cells [10]; class 31-45 foci/cell,26.9231
same,"foci/cell, number of cells in class",PANC1 cells [10]; class 31-45 foci/cell,7
same,"foci/cell, share of cells in class (Suma 100)",PANC1 cells [10]; class 46-60 foci/cell,15.3846
same,"foci/cell, number of cells in class",PANC1 cells [10]; class 46-60 foci/cell,4
same,"foci/cell, share of cells in class (Suma 100)",PANC1 cells [10]; class <15 foci/cell,3.846
same,"foci/cell, number of cells in class",PANC1 cells [10]; class <15 foci/cell,1
same,"foci/cell, share of cells in class (Suma 100)",PANC1 cells [10]; class >61 foci/cell,26.9231
same,"foci/cell, number of cells in class",PANC1 cells [10]; class >61 foci/cell,7
same,CFUs,"PANC1 cells [11]; PANC1, 1 h pre-treatment at IC50, colonies after 10 days",176 and 164 and 136
same,CFUs,"PANC1 cells [11]; PANC1, 3 h pre-treatment at IC50, colonies after 10 days",104 and 76 and 68
